# In ChEMBL document CHEMBL3886188, “Identification of human T2R receptors that respond to bitter compounds that elicit the bitter taste in compositions, and the use thereof in assays to identify compounds that inhibit (block) bitter taste in compositions and use thereof” (2016):
# Target: T1, Taste receptor type 2 member 8 (Homo sapiens, UniProt Q9NYW2)
# T1 sequence (Q9NYW2 whole entry): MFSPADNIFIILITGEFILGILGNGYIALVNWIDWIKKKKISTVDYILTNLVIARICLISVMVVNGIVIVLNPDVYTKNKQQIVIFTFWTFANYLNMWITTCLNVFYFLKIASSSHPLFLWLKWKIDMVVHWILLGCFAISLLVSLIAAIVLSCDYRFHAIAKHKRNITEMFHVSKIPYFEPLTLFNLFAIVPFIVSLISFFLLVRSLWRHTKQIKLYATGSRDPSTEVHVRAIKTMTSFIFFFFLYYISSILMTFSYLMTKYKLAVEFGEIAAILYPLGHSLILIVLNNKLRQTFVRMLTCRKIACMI
# Assay: Fluorescence Polarization Assays: In another embodiment, Fluorescence Polarization ("FP") based assays may be used to detect and monitor ligand binding. Fluorescence polarization is a versatile laboratory technique for measuring equilibrium binding, nucleic acid hybridization, and enzymatic activity. […] Generally, this technique can be used to measure polarization values of fluorophores from low picomolar to micromolar levels.
smiles,measurement,value
Cc1noc(C)c1Cn1cc(N2CCCN(Cc3ccccc3)C2=O)cn1,IC50,1.65 µM
